Laboratory results published in patent US20250214991A1 (Oncopia Therapeutics, Inc. d/b/a/ SK Life Science Labs, priority 2022, published 2025).

Key:
IKZF1 = IKZF1 (Homo sapiens (Human), UniProt Q13422+Q96SW2); assay: In vitro IKZF1 HiBit Assay (HEK293T Flp-in-HiBiT-IKZF1 stable cell line); format: cell-based; conditions: HEK293T Flp-in-HiBiT-IKZF1 stable cell line, 6 hrs incubation; for DC50: read-out: IKZF1 HiBit DC50; for Dmax: HEK-293T, read-out: IKZF1 HiBit Dmax (%)
Procedure, shortened: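 Degradation was measured as loss of luminescence from the HiBiT-IKZF1 tag after 6 h compound treatment, with 0.1% final DMSO, in stable HEK293T Flp-in cells. Values were normalized to DMSO, giving the 50% degradation concentration and the maximal degradation range.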

IKZF2 = IKZF2 (Homo sapiens (Human), UniProt Q96SW2+Q9UKS7); assay: In vitro IKZF2 HiBit Assay (HEK293T Flp-in-HiBiT cells); format: cell-based; conditions: HEK293T Flp-in-HiBiT cells, 6 hrs incubation; for DC50: read-out: IKZF2 HiBit DC50; for Dmax: HEK-293T, read-out: IKZF2 HiBit Dmax (%)
Procedure, shortened: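 Remaining tagged Helios was read as lytic HiBiT/LgBiT luminescence normalized to DMSO, yielding binned DC50 and Dmax values. Treatment ran 6 h, with compounds at 11 three-fold doses diluted from 1 mM and 0.1% final DMSO. The cells were HEK293T Flp-in with CRISPR knock-in of HiBiT at the IKZF2 N-terminus.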

CRBN/DDB1 = CRBN/DDB1 (Homo sapiens (Human), UniProt Q96SW2); assay: IC50 measurements for binding to CRBN/DDB1 (HTRF); conditions: His tagged CRBN+DDB, Cy5-labeled Thalidomide probe, one hour
Procedure, shortened: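 Serially diluted compounds compete with a Cy5-labeled thalidomide tracer (60 nM) for His-tagged CRBN-DDB1 (2 nM), detected via anti-6His Tb cryptate (0.4 nM); buffer HEPES pH 7.5 with TCEP, Brij-35, NaCl, BSA. One-hour room-temperature incubation, HTRF signal read, IC50 by four-parameter curve.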

IKZF1, sequence (Q13422 whole entry): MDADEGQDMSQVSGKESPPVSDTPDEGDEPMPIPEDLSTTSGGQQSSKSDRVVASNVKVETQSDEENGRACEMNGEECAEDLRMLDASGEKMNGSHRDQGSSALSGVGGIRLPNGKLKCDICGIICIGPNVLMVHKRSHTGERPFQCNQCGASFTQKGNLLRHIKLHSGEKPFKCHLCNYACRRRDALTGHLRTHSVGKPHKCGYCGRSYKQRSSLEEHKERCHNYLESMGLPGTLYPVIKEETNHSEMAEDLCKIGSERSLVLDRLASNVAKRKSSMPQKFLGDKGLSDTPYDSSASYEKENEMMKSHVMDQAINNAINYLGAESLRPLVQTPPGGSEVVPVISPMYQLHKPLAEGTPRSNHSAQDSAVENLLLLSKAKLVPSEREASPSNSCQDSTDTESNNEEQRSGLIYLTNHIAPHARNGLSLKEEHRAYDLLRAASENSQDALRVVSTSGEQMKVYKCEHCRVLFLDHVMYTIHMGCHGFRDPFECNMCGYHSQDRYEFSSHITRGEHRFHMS
IKZF1, sequence (Q96SW2 whole entry): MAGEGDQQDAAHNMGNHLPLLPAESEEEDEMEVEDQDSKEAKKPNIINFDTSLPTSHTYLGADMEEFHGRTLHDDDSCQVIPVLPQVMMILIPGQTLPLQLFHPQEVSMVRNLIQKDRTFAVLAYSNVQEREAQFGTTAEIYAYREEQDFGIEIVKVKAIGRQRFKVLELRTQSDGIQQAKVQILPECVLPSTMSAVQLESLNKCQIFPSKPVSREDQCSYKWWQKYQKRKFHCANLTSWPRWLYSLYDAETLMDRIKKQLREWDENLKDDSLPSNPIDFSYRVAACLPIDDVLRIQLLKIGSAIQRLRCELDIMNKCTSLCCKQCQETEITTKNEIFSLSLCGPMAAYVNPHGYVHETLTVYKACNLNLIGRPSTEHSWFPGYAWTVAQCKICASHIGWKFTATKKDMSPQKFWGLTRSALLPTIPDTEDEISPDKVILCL
IKZF1, sequence (Q16531 2-1140 partner): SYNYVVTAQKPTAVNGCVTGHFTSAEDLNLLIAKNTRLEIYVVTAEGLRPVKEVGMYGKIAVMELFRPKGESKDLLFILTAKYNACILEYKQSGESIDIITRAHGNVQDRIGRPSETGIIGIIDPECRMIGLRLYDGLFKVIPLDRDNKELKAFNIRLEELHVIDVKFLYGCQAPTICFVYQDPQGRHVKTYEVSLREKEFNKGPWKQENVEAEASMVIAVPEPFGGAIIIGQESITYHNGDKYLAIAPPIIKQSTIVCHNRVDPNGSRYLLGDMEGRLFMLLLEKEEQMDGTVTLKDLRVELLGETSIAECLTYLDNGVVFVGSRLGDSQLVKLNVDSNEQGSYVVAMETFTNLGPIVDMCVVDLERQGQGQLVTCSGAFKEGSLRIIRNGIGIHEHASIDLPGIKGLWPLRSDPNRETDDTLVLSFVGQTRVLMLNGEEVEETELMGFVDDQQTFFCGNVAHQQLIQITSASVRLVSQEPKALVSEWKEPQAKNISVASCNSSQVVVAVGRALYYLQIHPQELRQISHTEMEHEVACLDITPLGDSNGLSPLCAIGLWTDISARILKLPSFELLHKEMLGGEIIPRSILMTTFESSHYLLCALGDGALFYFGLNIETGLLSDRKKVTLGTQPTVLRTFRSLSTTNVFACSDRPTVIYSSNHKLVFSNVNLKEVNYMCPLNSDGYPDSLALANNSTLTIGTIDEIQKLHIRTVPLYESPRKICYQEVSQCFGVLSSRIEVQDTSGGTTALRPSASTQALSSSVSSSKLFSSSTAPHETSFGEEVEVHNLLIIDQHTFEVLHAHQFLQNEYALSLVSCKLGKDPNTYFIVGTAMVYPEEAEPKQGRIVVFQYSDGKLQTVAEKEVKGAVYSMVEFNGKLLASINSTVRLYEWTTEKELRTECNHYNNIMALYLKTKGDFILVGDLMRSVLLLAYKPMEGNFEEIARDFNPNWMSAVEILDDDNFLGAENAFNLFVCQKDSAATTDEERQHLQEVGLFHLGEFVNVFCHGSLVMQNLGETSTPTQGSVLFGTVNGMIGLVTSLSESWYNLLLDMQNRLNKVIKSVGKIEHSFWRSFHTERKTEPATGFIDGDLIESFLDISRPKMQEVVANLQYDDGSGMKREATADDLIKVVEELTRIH
IKZF2, sequence (Q9UKS7 whole entry): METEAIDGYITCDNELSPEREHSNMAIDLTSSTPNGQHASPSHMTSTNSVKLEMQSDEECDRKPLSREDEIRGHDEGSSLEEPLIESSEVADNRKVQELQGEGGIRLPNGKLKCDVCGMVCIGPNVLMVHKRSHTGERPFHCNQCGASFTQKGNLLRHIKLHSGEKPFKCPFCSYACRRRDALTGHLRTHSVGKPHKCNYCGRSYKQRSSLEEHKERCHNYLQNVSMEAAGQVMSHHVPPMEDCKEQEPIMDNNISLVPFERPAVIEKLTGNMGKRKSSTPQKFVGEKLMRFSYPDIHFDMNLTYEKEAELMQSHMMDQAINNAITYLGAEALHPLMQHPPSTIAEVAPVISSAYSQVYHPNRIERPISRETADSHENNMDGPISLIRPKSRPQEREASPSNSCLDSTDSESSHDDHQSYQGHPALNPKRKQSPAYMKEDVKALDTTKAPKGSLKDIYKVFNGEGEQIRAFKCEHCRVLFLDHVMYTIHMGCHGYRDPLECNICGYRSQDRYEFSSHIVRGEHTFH
IKZF2, sequence (Q96SW2 whole entry): as the sequence (Q96SW2 whole entry) above
IKZF2, sequence (Q16531 2-1140 partner): as the sequence (Q16531 2-1140 partner) above
CRBN/DDB1, sequence (Q96SW2 whole entry, species assumed): as the sequence (Q96SW2 whole entry) above
CRBN/DDB1, sequence (Q16531 whole entry partner, species assumed): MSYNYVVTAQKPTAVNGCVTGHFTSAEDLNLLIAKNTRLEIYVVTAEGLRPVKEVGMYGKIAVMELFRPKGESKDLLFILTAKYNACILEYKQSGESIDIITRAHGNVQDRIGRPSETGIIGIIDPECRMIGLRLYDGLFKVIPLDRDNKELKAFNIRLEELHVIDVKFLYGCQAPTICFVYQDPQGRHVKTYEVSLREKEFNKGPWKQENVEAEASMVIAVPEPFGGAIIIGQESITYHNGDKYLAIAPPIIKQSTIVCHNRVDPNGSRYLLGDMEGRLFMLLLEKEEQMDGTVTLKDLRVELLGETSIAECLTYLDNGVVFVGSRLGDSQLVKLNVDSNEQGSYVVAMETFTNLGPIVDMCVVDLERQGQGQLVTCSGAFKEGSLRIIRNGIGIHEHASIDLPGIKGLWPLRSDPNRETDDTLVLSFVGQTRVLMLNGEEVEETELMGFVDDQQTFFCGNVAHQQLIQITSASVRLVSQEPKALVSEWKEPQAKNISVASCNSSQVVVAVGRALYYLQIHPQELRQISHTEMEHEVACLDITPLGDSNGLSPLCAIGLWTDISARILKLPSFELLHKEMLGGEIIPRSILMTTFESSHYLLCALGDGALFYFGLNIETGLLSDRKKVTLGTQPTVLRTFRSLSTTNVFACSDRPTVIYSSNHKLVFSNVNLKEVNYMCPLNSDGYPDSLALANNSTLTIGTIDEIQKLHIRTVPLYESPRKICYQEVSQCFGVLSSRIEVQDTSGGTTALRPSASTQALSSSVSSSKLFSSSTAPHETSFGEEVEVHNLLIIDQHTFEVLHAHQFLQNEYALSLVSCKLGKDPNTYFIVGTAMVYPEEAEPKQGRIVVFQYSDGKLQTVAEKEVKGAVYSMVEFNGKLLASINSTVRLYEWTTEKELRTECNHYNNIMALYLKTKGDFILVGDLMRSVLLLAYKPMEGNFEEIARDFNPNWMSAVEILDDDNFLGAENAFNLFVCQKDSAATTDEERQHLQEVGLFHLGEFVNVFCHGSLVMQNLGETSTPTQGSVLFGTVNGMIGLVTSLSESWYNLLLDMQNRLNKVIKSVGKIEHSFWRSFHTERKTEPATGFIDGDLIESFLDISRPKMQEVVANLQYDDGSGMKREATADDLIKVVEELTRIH

SMILES | DC50 (IKZF1) [nM] | Dmax (IKZF1) [%] | DC50 (IKZF2) [nM] | Dmax (IKZF2) [%] | IC50 (CRBN/DDB1) [nM]
O=C1CCC(N2Cc3cc(-c4cc(CN5CCCC5)c5[nH]nc(C6CCC6)c5n4)ccc3C2=O)C(=O)N1 (stereo not shown) [Example 224, 3-(5-(3-cyclobutyl-7-(pyrrolidin-1-ylmethyl)-1H-pyrazolo[4,3-b]pyridin-5-yl)-1-oxoisoindolin-2-yl) piperidine-2,6-dione] | 10 to 100 | 40 to 60 | < 1 | 60 to 80 | 1000 to 5000
O=C1CCC(N2Cc3cc(-c4cc(CN5CCCC5)c5ncn(C6CS(=O)(=O)C6)c5n4)ccc3C2=O)C(=O)N1 (stereo not shown) [Example 225, 3-(5-(3-(1,1-dioxidothietan-3-yl)-7-(pyrrolidin-1-ylmethyl)-3H-imidazo[4,5-b]pyridin-5-yl)-1-oxoisoindolin-2-yl) piperidine-2,6-dione] | > 10000 | < 20 | < 1 | 20 to 40 | 500 to 1000
Cn1ccc2c(C3CCCCN3)cc(-c3ccc4c(c3)CN([C@H]3CCC(=O)NC3=O)C4=O)nc21 (stereo partly drawn) [Example 231, (3S)-3-(5-(1-methyl-4-(piperidin-2-yl)-1H-pyrrolo[2,3-b]pyridin-6-yl)-1-oxoisoindolin-2-yl) piperidine-2,6-dione] | 1 to 10 | 20 to 40 | 10 to 100 | 40 to 60 | 100 to 500
O=C1CCC(N2Cc3cc(-c4cc(CN5CCCC5)c5c(n4)C(=O)NC5)ccc3C2=O)C(=O)N1 (stereo not shown) [Example 233, 3-(1-ox0-5-(7-oxo-4-(pyrrolidin-1-ylmethyl)-6,7-dihydro-5H-pyrrolo[3,4-b]pyridin-2-yl)isoindolin-2-yl) piperidine-2,6-dione] | > 10000 | < 20 | > 10000 | < 20 | 1000 to 5000
Nc1nn(C2COC2)c2c(CN3CCCC3)cc(-c3ccc4c(c3)CN(C3CCC(=O)NC3=O)C4=O)nc12 (stereo not shown) [Example 234, 3-(5-(3-amino-1-(oxetan-3-yl)-7-(pyrrolidin-1-ylmethyl)-1H-pyrazolo[4,3-b]pyridin-5-yl)-1-oxoisoindolin-2-yl) piperidine-2,6-dione] | 1000 to 10000 | 20 to 40 | 10 to 100 | 60 to 80 | 1000 to 5000
COc1n[nH]c2c(CN3CCCC3)cc(-c3ccc4c(c3)CN(C3CCC(=O)NC3=O)C4=O)nc12 (stereo not shown) [Example 235, 3-(5-(3-methoxy-7-(pyrrolidin-1-ylmethyl)-1H-pyrazolo[4,3-b]pyridin-5-yl)-1-oxoisoindolin-2-yl) piperidine-2,6-dione] | 100 to 1000 | 20 to 40 | 1 to 10 | 60 to 80 | 5000 to 10000
CC(C)Oc1n[nH]c2c(CN3CCCC3)cc(-c3ccc4c(c3)CN(C3CCC(=O)NC3=O)C4=O)nc12 (stereo not shown) [Example 238, 3-(5-(3-isopropoxy-7-(pyrrolidin-1-ylmethyl)-1H-pyrazolo[4,3-b]pyridin-5-yl)-1-oxoisoindolin-2-yl) piperidine-2,6-dione] | > 10000 | < 20 | < 1 | 60 to 80 | 1000 to 5000
CC(C)n1ccc2c(CN3CCCC3)cc(-c3ccc4c(c3)CN(C3CCC(=O)NC3=O)C4=O)nc21 (stereo not shown) [Example 299, 3-(5-(1-isopropyl-4-(pyrrolidin-1-ylmethyl)-1H-pyrrolo[2,3-b]pyridin-6-yl)-1-oxoisoindolin-2-yl) piperidine-2,6-dione] | > 10000 | < 20 | 1 to 10 | 60 to 80 | 500 to 1000
Cn1ccc2c(CN3CCC(S(C)(=O)=O)CC3)cc(-c3ccc4c(c3)CN(C3CCC(=O)NC3=O)C4=O)nc21 (stereo not shown) [Example 300, 3-(5-(1-methyl-4-((4-(methylsulfonyl)piperidin-1-yl)methyl)-1H-pyrrolo[2,3-b]pyridin-6-yl)-1-oxoisoindolin-2-yl) piperidine-2,6-dione] | > 10000 | < 20 | 10 to 100 | 60 to 80 | 1000 to 5000
Cn1ccc2c(CN3CCC(F)CC3)cc(-c3ccc4c(c3)CN(C3CCC(=O)NC3=O)C4=O)nc21 (stereo not shown) [Example 301, 3-(5-(4-((4-fluoropiperidin-1-yl)methyl)-1-methyl-1H-pyrrolo[2,3-b]pyridin-6-yl)-1-oxoisoindolin-2-yl) piperidine-2,6-dione] | 10 to 100 | 20 to 40 | < 1 | > 80 | 1000 to 5000
Cn1ccc2c(CN3CCCCCC3)cc(-c3ccc4c(c3)CN(C3CCC(=O)NC3=O)C4=O)nc21 (stereo not shown) [Example 302, 3-(5-(4-(azepan-1-ylmethyl)-1-methyl-1H-pyrrolo[2,3-b]pyridin-6-yl)-1-oxoisoindolin-2-yl) piperidine-2,6-dione] | 1 to 10 | 20 to 40 | < 1 | > 80 | 1000 to 5000
Cn1ccc2c(CN3CCC(O)C3)cc(-c3ccc4c(c3)CN(C3CCC(=O)NC3=O)C4=O)nc21 (stereo not shown) [Example 303, 3-(5-(4-((3-hydroxypyrrolidin-1-yl)methyl)-1-methyl-1H-pyrrolo[2,3-b]pyridin-6-yl)-1-oxoisoindolin-2-yl) piperidine-2,6-dione] | 10 to 100 | 20 to 40 | 1 to 10 | > 80 | 1000 to 5000
Cn1ccc2c(CN3CCC(F)C3)cc(-c3ccc4c(c3)CN(C3CCC(=O)NC3=O)C4=O)nc21 (stereo not shown) [Example 304, 3-(5-(4-((3-fluoropyrrolidin-1-yl)methyl)-1-methyl-1H-pyrrolo[2,3-b]pyridin-6-yl)-1-oxoisoindolin-2-yl) piperidine-2,6-dione] | > 10000 | < 20 | 1 to 10 | > 80 | 1000 to 5000
Cn1ccc2c(CN3CCC(O)CC3)cc(-c3ccc4c(c3)CN(C3CCC(=O)NC3=O)C4=O)nc21 (stereo not shown) [Example 305, 3-(5-(4-((4-hydroxypiperidin-1-yl)methyl)-1-methyl-1H-pyrrolo[2,3-b]pyridin-6-yl)-1-oxoisoindolin-2-yl) piperidine-2,6-dione] | > 10000 | < 20 | 1 to 10 | > 80 | 1000 to 5000
Cn1ccc2c(CN3CC(O)C3)cc(-c3ccc4c(c3)CN(C3CCC(=O)NC3=O)C4=O)nc21 (stereo not shown) [Example 306, 3-(5-(4-((3-hydroxyazetidin-1-yl)methyl)-1-methyl-1H-pyrrolo[2,3-b]pyridin-6-yl)-1-oxoisoindolin-2-yl) piperidine-2,6-dione] | 100 to 1000 | 20 to 40 | 10 to 100 | > 80 | 100 to 500
Cn1ccc2c(CN3CC4CCC(C4)C3)cc(-c3ccc4c(c3)CN(C3CCC(=O)NC3=O)C4=O)nc21 (stereo not shown) [Example 308, 3-(5-(4-((3-azabicyclo[3.2.1]octan-3-yl)methyl)-1-methyl-1H-pyrrolo[2,3-b]pyridin-6-yl)-1-oxoisoindolin-2-yl) piperidine-2,6-dione] | 1 to 10 | 20 to 40 | 1 to 10 | > 80 | 100 to 500
Cn1ccc2c(CN3CCC(C#N)CC3)cc(-c3ccc4c(c3)CN(C3CCC(=O)NC3=O)C4=O)nc21 (stereo not shown) [Example 309, 1-((6-(2-(2,6-dioxopiperidin-3-yl)-1-oxoisoindolin-5-yl)-1-methyl-1H-pyrrolo[2,3-b]pyridin-4-yl)methyl) piperidine-4-carbonitrile] | 1000 to 10000 | 20 to 40 | 1 to 10 | > 80 | 1000 to 5000
Cn1ncc2nc(-c3ccc4c(c3)CN(C3CCC(=O)NC3=O)C4=O)cc(CN3CCCC3)c21 (stereo not shown) [Example 310, 3-(5-(1-methyl-7-(pyrrolidin-1-ylmethyl)-1H-pyrazolo[4,3-b]pyridin-5-yl)-1-oxoisoindolin-2-yl) piperidine-2,6-dione] | > 10000 | < 20 | < 1 | > 80 | 500 to 1000
CN1C2CCC1CN(Cc1cc(-c3ccc4c(c3)CN(C3CCC(=O)NC3=O)C4=O)nc3c1ccn3C)C2 (stereo not shown) [Example 311, 3-(5-(1-methyl-4-((8-methyl-3,8-diazabicyclo[3.2.1]octan-3-yl)methyl)-1H-pyrrolo[2,3-b]pyridin-6-yl)-1-oxoisoindolin-2-yl) piperidine-2,6-dione] | > 10000 | < 20 | 1 to 10 | 60 to 80 | 500 to 1000
O=C1CCC(N2Cc3cc(-c4ncn5ccc(CN6CCCC6)cc45)ccc3C2=O)C(=O)N1 (stereo not shown) [Example 312, 3-(1-oxo-5-(7-(pyrrolidin-1-ylmethyl)imidazo[1,5-a]pyridin-1-yl)isoindolin-2-yl) piperidine-2,6-dione] | > 10000 | < 20 | 10 to 100 | 20 to 40 | 1000 to 5000
